Laboratory results reported in patent US8858952B2, “Methods and materials for generating T cells” (Mayo Foundation for Medical Education and Research, priority 2009, dated 2014).
Where no end group is shown, it is not given here. [ ]: non-standard residue; d: D form. Ava = NCCCCC(=O)O

Tested on: FR74-specific T cells
Experiment: IFN-γ ELIspot of T cell cultures generated ex vivo with polypeptide-pulsed DC
Format: cell-based, FVB/N mice
Protocol: FIG. 4 is a graph plotting the results an IFN-γ ELIspot analyses of T cell cultures incubated with the indicated polypeptides. Epitope nesting greatly augments the numbers of antigen-specific T cells. T cells were tested in ELIspot against native FR74 polypeptide at various concentrations. Each data point is the mean of 3 determinations.
FIG. 6. FR74-specific T cells generated with modified polypeptides recognized tumor lysates. […] Each bar is the mean (±s.e.m.) of 3 replicates.
FIG. 7. […] The T cells were generated at varying concentrations of polypeptides (x-axis). Each point is the mean (±s.e.m.) of 3 replicates.
In terms of proliferation, only the dual modified polypeptide was able to generate T cells that were able to proliferate at 10^−9 g/mL (FIG. 5).
In order to determine whether furin cleavage is required, two methods are used: furin insensitive linkers and furin inhibitors. Blockade of enhanced ex vivo expansion mediated by the DC3 peptide using these two methods is powerful evidence, outside of a furin knockout mouse, that furin is required for the actions of DC3. Although it has already been shown that DC3 must be linked to antigen, as a control T cells are expanded using free FR74 mixed with free DC3. To test the role of furin with furin-insensitive linkers, RARR (SEQ ID NO:4) is replaced with VRVV (SEQ ID NO:41) with the polypeptides FR74.1, FR74.3, and FR74.8 as shown in FIG. 17. In parallel with these cultures, cultures are included in which inhibitors are included. The stoichiometric peptidyl inhibitor decanoyl-Arg-Val-Lys-Arg-CH2CL (SEQ ID NO:42) and α1-antitrypsin Portland, which are the two most commonly used inhibitors, are employed. […] Cultures are examined over a range of concentrations of inhibitors and assayed as described with ELIspot and proliferation assays. To generate Th cells, CD4^+ T cells are purified by incubation of splenocytes with anti-CD4^+ MACS microbeads (Miltenyi, Auburn, Calif.) for 20 minutes at 4° C., followed by positive selection of CD4^+ T cells using an AutoMACS automatic magnetic cell sorter according to the manufacturer's specifications. Th cell lines are established with bone marrow derived DC at a concentration of 5×10^4 T cells/mL in 24-well tissue culture-treated plates in complete medium on day 0. To derive the dendritic cells (DCs), bone marrow is harvested from the long bones of FVB/N mice and seeded in 6-well plates (3×10^6/well) in complete media with murine GM-CSF (10 ng/mL) and IL-4 (1 ng/mL). Media and cytokines are replaced after 3 days. On day 5, CPG is added to the cultures at 1 μg/mL, and the cells are ready for T cell induction on day 6. The tissue culture-generated DC are pulsed with 10 μg/mL FR74 peptide or its modifications and 10 μg/mL B7DC-crosslinking antibody at 37° C. for 4 hours. In these experiments, constant mass is maintained. Next, the peptide-loaded DC are washed with media, and the CD4+ T cells are added, and on days 8 and 10, IL-2 (50 U/mL) is added. On day 15, cells are assayed. For the ELIspot analysis, anti-IFN-γ (Pharmingen) antibody is added to a 96-well nitrocellulose-backed plate (NC-plate, Millipore) at 50 μL/well at a concentration of 10 μg/mL in PBS and incubated overnight at 4° C. The day of analysis, the NC-plate is washed with PBS and blocked for 1-2 hours at 37° C. with PBS/2%BSA. After blocking, the plate are again washed. The Th cells are transferred to the antibody-coated plates. Syngeneic naïve CD4 T cells alone without peptide antigen are used as the negative control. Th cells are seeded at 5×10^4 cells/well with a range of native (i.e., FR74) peptide, irrelevant peptide, FRαMMC tumor lysate, irrelevant tumor lysate, media or concanavalin A. Irradiated syngeneic splenocytes are added at 1 ×10^5 cells/well as antigen-presenting cells. The plate is incubated at 37° C. for 24 hours. The plate are washed with PBS/0.05% Tween-20, and 100 μL/well biotinylated anti-IFN-γ(5 μg/mL, Pharmingen) antibody are added to each well. […]

Q: For “FR74.4: dual conjugated polypeptide: FR74 nested between Ii-key and DC3 (Ac-LRMK[Ava]KDISYLYRFNWNHCGRARRFYPSYHSTPQRP)”, which “response of generated T cells to naturally processed antigen” value (DC pulsed with FRα-expressing tumor cells, FIG. 6) is on record?
A: The value was “retain the capability to respond to naturally processed antigen”.

Q: And the “lowest peptide concentration at which generated T cells respond” value (IFN-γ ELIspot against native FR74, FIG. 4)?
A: The value was 10^−9 g/mL.

Q: What about the “ex vivo generation of FR74-specific T cells under equal molar amounts” value (equal molarity, FIG. 7) of the same substance?
A: The value was “superior ex vivo generation of FR74-specific T cells relative to the native polypeptide”.

Q: And the “generation of FR74-specific T cells” value (within 12 days of culture, compared to controls, equal masses, FIG. 4)?
A: Its value is “T cell reactivity greater than either modification alone”.
